# Test results from US11203591B2, “Substituted 6-azabenzimidazole compounds” (Gilead Sciences, Inc., priority 2018, dated 2021).
# Target: human HPK1 (MAP4K1) (Homo sapiens (Human), UniProt Q92918)
# Assay: HPK1 IC50 Assay (TR-FRET peptide phosphorylation)
# Format: biochemical
# Details: 0.15 nM HPK1, 10 μM ATP, 1 μM STK S1 peptide substrate; geometric mean
# Procedure, shortened: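 Pre-activated, dually phosphorylated baculovirus-expressed HPK1 kinase domain (0.15 nM) preincubated 15 min with compound, then reacted 3 h at 25° C with 10 μM ATP and 1 μM STK S1 peptide in BES pH 7.0 buffer. Phosphopeptide read by TR-FRET (665/620 nm); four-parameter fit, geometric-mean IC50.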
# human HPK1 (MAP4K1), sequence (Q92918 17-274): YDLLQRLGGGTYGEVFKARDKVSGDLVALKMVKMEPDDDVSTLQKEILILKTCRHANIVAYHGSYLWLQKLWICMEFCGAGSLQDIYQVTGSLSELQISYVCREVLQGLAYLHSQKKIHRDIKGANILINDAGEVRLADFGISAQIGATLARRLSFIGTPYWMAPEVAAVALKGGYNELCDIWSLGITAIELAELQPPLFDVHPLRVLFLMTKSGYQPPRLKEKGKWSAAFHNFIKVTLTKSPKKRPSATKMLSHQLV
row,IC50,Compound
1,0.07 nM,"Cc1c(C(=O)NCC(F)F)cc(Nc2nc(-c3cc4c(nc3F)C(C)(C)C(=O)N4[C@H]3C[C@@](C)(N4CCCCC4)C3)cc3ncn(C(C)C)c23)c(F)c1F [Example 269, N-(2,2-difluoroethyl)-3,4-difluoro-5-((6-(5-fluoro-3,3-dimethyl-1-((1s,3s)-3-methyl-3-(piperidin-1-yl)cyclobutyl)-2-oxo-2,3-dihydro-1H-pyrrolo[3,2-b]pyridin-6-yl)-3-isopropyl-3H-imidazo[4,5-c]pyridin-4-yl)amino)-2-methylbenzamide]"
2,0.06 nM,"Cc1cc(F)c(Nc2nc(-c3ccc4c(c3)N([C@H]3C[C@@](C)(N5CCCCC5)C3)C(=O)C4(C)C)cc3ncn(C(C)C)c23)cc1C(=O)NCC(F)F [Example 266, N-(2,2-difluoroethyl)-5-((6-(3,3-dimethyl-1-((1s,3s)-3-methyl-3-(piperidin-1-yl)cyclobutyl)-2-oxoindolin-6-yl)-3-isopropyl-3H-imidazo[4,5-c]pyridin-4-yl)amino)-4-fluoro-2-methylbenzamide]"
3,0.1 nM,"CCNC(=O)c1cc(Nc2nc(-c3cnc4c(c3)N([C@H]3C[C@@](C)(N5CCCCC5)C3)C(=O)C4(C)C)cc3ncn(C(C)C)c23)c(F)c(F)c1Cl [Example 286, 2-chloro-5-((6-(3,3-dimethyl-1-((1s,3s)-3-methyl-3-(piperidin-1-yl)cyclobutyl)-2-oxo-2,3-dihydro-1H-pyrrolo[3,2-b]pyridin-6-yl)-3-isopropyl-3H-imidazo[4,5-c]pyridin-4-yl)amino)-N-ethyl-3,4-difluorobenzamide]"
4,0.06 nM,"CCNC(=O)c1cc(Nc2nc(-c3ccc4c(c3)N([C@H]3C[C@@](C)(N5CCCCC5)C3)C(=O)C4(C)C)cc3ncn(C(C)C)c23)c(F)cc1C [Example 276, 5-((6-(3,3-dimethyl-1-((1s,3s)-3-methyl-3-(piperidin-1-yl)cyclobutyl)-2-oxoindolin-6-yl)-3-isopropyl-3H-imidazo[4,5-c]pyridin-4-yl)amino)-N-ethyl-4-fluoro-2-methylbenzamide]"

row,Compound,IC50
1,"CCNC(=O)c1cc(Nc2nc(-c3cnc4c(c3)N([C@H]3C[C@@](C)(N5CCCCC5)C3)C(=O)C4(C)C)cc3ncn(C(C)C)c23)c(F)c(F)c1F [Example 278, 5-((6-(3,3-dimethyl-1-((1s,3s)-3-methyl-3-(piperidin-1-yl)cyclobutyl)-2-oxo-2,3-dihydro-1H-pyrrolo[3,2-b]pyridin-6-yl)-3-isopropyl-3H-imidazo[4,5-c]pyridin-4-yl)amino)-N-ethyl-2,3,4-trifluorobenzamide]",0.2 nM

# Same assay, conditions: recombinant HPK1 kinase domain 0.15 nM, 10 μM ATP, 1 μM STK S1 peptide; geometric mean of multiple experiments
row,IC50,Compound
1,0.1 nM,CNC(=O)c1cc(Nc2nc(-c3ccc4c(c3)N([C@H]3C[C@@H](N5CCOCC5)C3)C(=O)C4(C)C)cc3ncn(C(C)C)c23)ccc1C [Example 39]
2,0.1 nM,Cc1ccc(Nc2nc(-c3ccc4c(c3)N([C@H]3C[C@@H](N5CCOC(C)(C)C5)C3)C(=O)C4(C)C)cc3ncn(C4CC4)c23)cc1C(N)=O [Example 16]
3,0.04 nM,"CC(C)n1cnc2cc(-c3cnc4c(c3)N([C@H]3C[C@@](C)(N5CCCCCC5)C3)C(=O)C4(C)C)nc(Nc3cc(C(=O)NC4(CF)CC4)c(Cl)c(F)c3F)c21 [Example 249, 5-((6-(1-((1s,3s)-3-(azepan-1-yl)-3-methylcyclobutyl)-3,3-dimethyl-2-oxo-2,3-dihydro-1H-pyrrolo[3,2-b]pyridin-6-yl)-3-isopropyl-3H-imidazo[4,5-c]pyridin-4-yl)amino)-2-chloro-3,4-difluoro-N-(1-(fluoromethyl)cyclopropyl)benzamide]"
4,0.1 nM,CC[C@H](C)n1cnc2cc(-c3ccc4c(c3)N([C@H]3C[C@@H](N5CCCCC5)C3)C(=O)C43CCN(C(=O)OC)CC3)nc(Nc3ccc(C)c(C(=O)NC)c3)c21 [Example 169]
5,0.09 nM,CNC(=O)c1cc(Nc2nc(-c3ccc4c(c3)N([C@H]3C[C@@H](N5CCCCC5)C3)C(=O)C43CCN(C(=O)C(C)C)CC3)cc3ncn(C4CC4)c23)ccc1C [Example 52]
6,0.1 nM,"Cc1cc(F)c(Nc2nc(-c3cnc4c(c3)N([C@H]3C[C@@](C)(N5CCCCC5)C3)C(=O)C4(C)C)cc3ncn(C(C)C)c23)cc1C(=O)NC1(C(F)F)CC1 [Example 216, N-(1-(Difluoromethyl)cyclopropyl)-5-((6-(3,3-dimethyl-1-((1s,3s)-3-methyl-3-(piperidin-1-yl)cyclobutyl)-2-oxo-2,3-dihydro-1H-pyrrolo[3,2-b]pyridin-6-yl)-3-isopropyl-3H-imidazo[4,5-c]pyridin-4-yl)amino)-4-fluoro-2-methylbenzamide]"
7,0.06 nM,CNC(=O)c1cc(Nc2nc(-c3ccc4c(c3)N([C@H]3C[C@@H](N5C[C@H]6CC[C@@H]5C6)C3)C(=O)C43CCN(C(=O)C4COC4)CC3)cc3ncn(C4CC4)c23)ccc1C [Example 42]
8,0.2 nM,CNC(=O)c1cc(Nc2nc(-c3ccc4c(c3)N([C@H]3C[C@@H](N5CCCCC5)C3)C(=O)C43CCN(C(C)=O)CC3)cc3ncn(C4CC4)c23)ccc1Cl [Example 47]
9,0.1 nM,CNC(=O)c1cc(Nc2nc(-c3ccc4c(c3)N([C@H]3C[C@@H](N5CC[C@@H](F)C5)C3)C(=O)C4(C)C)cc3ncn(C(C)C)c23)c(F)cc1C [Example 108]
10,0.1 nM,CNC(=O)c1cc(Nc2nc(-c3ccc4c(c3)N([C@H]3C[C@@H](N5CC[C@@H](F)C5)C3)C(=O)C4(C)C)cc3ncn(C(C)C)c23)ccc1C [Example 4]
11,0.1 nM,"CC(C)n1cnc2cc(-c3cnc4c(c3)N([C@H]3C[C@@](C)(N5CCC6CC6C5)C3)C(=O)C4(C)C)nc(Nc3cc(C(=O)NC4(CF)CC4)c(Cl)c(F)c3F)c21 (mixture of isomers) [Example 257, 5-((6-(1-((1s,3s)-3-(3-azabicyclo[4.1.0]heptan-3-yl)-3-methylcyclobutyl)-3,3-dimethyl-2-oxo-2,3-dihydro-1H-pyrrolo[3,2-b]pyridin-6-yl)-3-isopropyl-3H-imidazo[4,5-c]pyridin-4-yl)amino)-2-chloro-3,4-difluoro-N-(1-(fluoromethyl)cyclopropyl)benzamide]"
12,0.2 nM,"Cc1c(C(=O)NC2(C(F)F)CC2)cc(Nc2nc(-c3cnc4c(c3)N([C@H]3C[C@@](C)(N5CCC(F)C6(CC6)C5)C3)C(=O)C4(C)C)cc3ncn(C(C)C)c23)c(F)c1F (stereo partly shown) [Example 187, N-(1-(Difluoromethyl)cyclopropyl)-3,4-difluoro-5-((6-(1-((1s,3s)-3-(8-fluoro-5-azaspiro[2.5]octan-5-yl)-3-methylcyclobutyl)-3,3-dimethyl-2-oxo-2,3-dihydro-1H-pyrrolo[3,2-b]pyridin-6-yl)-3-isopropyl-3H-imidazo[4,5-c]pyridin-4-yl)amino)-2-methylbenzamide]"
13,0.4 nM,CCn1cnc2cc(-c3ccc4c(c3)N([C@H]3C[C@@H](N5CCCCC5)C3)C(=O)C43CCN(C(C)=O)CC3)nc(Nc3cc(C(=O)NC(C)C)c(C)cc3F)c21 [Example 54]
14,0.09 nM,CNC(=O)c1cc(Nc2nc(-c3ccc4c(c3)N([C@H]3C[C@@H](N[C@@H]5CCOC[C@@H]5C)C3)C(=O)C4(C)C)cc3ncn(C(C)C)c23)ccc1C [Example 12]
15,0.05 nM,CC[C@H](C)n1cnc2cc(-c3ccc4c(c3)N([C@H]3C[C@@H](N5CCCCC5)C3)C(=O)C4(C)C)nc(Nc3ccc(Cl)c(C(=O)NC)c3)c21 [Example 114]
16,0.07 nM,CNC(=O)c1cc(Nc2nc(-c3ccc4c(c3)N([C@H]3C[C@@H](N5CCCC(C)(C)C5)C3)C(=O)C4(C)C)cc3ncn(C4CC4)c23)ccc1C [Example 38]
17,0.08 nM,"CC(C)n1cnc2cc(-c3cnc4c(c3)N([C@H]3C[C@@](C)(N5CCCCC5)C3)C(=O)C43CCOCC3)nc(Nc3cc(C(=O)NC4(C(F)F)CC4)c(Cl)c(F)c3F)c21 [Example 210, 2-Chloro-N-(1-(difluoromethyl)cyclopropyl)-3,4-difluoro-5-((3-isopropyl-6-(1′-((1s,3s)-3-methyl-3-(piperidin-1-yl)cyclobutyl)-2′-oxo-1′,2,2′,3,5,6-hexahydrospiro[pyran-4,3′-pyrrolo[3,2-b]pyridin]-6′-yl)-3H-imidazo[4,5-c]pyridin-4-yl)amino)benzamide]"
18,0.06 nM,"CCNC(=O)c1cc(Nc2nc(-c3cnc4c(c3)N([C@H]3C[C@@](C)(N5CCCCC5)C3)C(=O)C4(C)C)cc3ncn(C(C)C)c23)c(F)c(F)c1C [Example 222, 5-((6-(3,3-Dimethyl-1-((1s,3s)-3-methyl-3-(piperidin-1-yl)cyclobutyl)-2-oxo-2,3-dihydro-1H-pyrrolo[3,2-b]pyridin-6-yl)-3-isopropyl-3H-imidazo[4,5-c]pyridin-4-yl)amino)-N-ethyl-3,4-difluoro-2-methylbenzamide]"
19,0.1 nM,CNC(=O)c1cc(Nc2nc(-c3ccc4c(c3)N([C@H]3C[C@@H](N5CCCCC5)C3)C(=O)C4(C)O)cc3ncn(C(C)C)c23)ccc1Cl (stereo partly shown) [Example 63]

row,Compound,IC50
1,CNC(=O)c1cc(Nc2nc(-c3ccc4c(c3)N([C@H]3C[C@@H](N5CC6C(C5)C6(F)F)C3)C(=O)C43CCN(C4COC4)CC3)cc3ncn(C(C)C)c23)c(F)cc1C (stereo partly shown) [Example 70],0.7 nM
2,"CNC(=O)c1cc(Nc2nc(-c3ccc4c(c3)N([C@H]3C[C@@H](N5CCC[C@@H](F)C5)C3)C(=O)C43CCN(C4COC4)CC3)cc3ncn(C(C)C)c23)c(F)cc1C [Example 170, 4-fluoro-5-((6-(1-((1S,3s)-3-((R)-3-fluoropiperidin-1-yl)cyclobutyl)-1′-(oxetan-3-yl)-2-oxospiro[indoline-3,4′-piperidin]-6-yl)-3-isopropyl-3H-imidazo[4,5-c]pyridin-4-yl)amino)-N,2-dimethylbenzamide]",0.8 nM
3,CNC(=O)c1cc(Nc2nc(-c3ccc4c(c3)N([C@H]3C[C@@H](N5C6COCC5C6)C3)C(=O)C4(C)C)cc3ncn(C(C)C)c23)c(F)cc1C [Example 9],0.1 nM
4,"Cc1ccc(Nc2nc(-c3ccc4c(c3)N([C@H]3C[C@@H](NC(=O)C(C)(C)C)C3)C(=O)C4(C)C)cc3ncn(C(C)C)c23)cc1C(N)=O [Example 135, 5-((6-(3,3-dimethyl-2-oxo-1-((1s,3s)-3-pivalamidocyclobutyl)indolin-6-yl)-3-isopropyl-3H-imidazo[4,5-c]pyridin-4-yl)amino)-2-methylbenzamide]",0.6 nM
